US8377949B2, “Quinazolinedione chymase inhibitors” (Boehringer Ingelheim International GmbH, priority 2007, dated 2013)

Molecular target: T1, Chymase (Homo sapiens, UniProt P23946)
T1 sequence (P23946 22-247): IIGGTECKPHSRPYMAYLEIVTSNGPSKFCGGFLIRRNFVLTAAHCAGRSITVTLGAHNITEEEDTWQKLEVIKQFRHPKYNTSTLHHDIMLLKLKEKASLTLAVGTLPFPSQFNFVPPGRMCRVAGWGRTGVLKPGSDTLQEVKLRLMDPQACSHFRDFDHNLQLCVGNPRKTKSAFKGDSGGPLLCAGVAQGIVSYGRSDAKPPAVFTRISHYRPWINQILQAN
Assay: In vitro Assay for Inhibition of Chymase
Type: biochemical
Conditions: 500 pM chymase, 100 nM rhodamine 110 peptide substrate, 1 hour at 28° C., fluorescence
Description: In vitro Assay for Inhibition of Chymase
Chymase assays were performed in a total volume of 15 μL in Corning black opaque 384-well microtiter plates with a non-binding surface (Coming, N.Y.). The assay buffer was comprised of 20 mM Tris HCl pH 8.0, 50 mM NaCl, 0.01% CHAPS. The test compounds were serially diluted 3-fold with neat DMSO in a 96-well polypropylene plate from a 10 mM DMSO stock to give the 10 point dose response curve. 3 μL of the resulting DMSO solution were transferred to a 384-well polypropylene plate in duplicate, and 37 μL of assay buffer was added. Chymase was added to the assay plate in 3 uL of assay buffer followed by 2 uL of the appropriate compound dilution using a PlateMate Plus (Matrix Technologies Corp., Hudson, N.H.). The reaction was initiated by the addition of 10 uL rhodamine 110, bis-(succinoyl-L-alanyl-L-alanyl-L-prolyl-L-phenylalanylamide) (American Peptides, Sunnyvale, Calif.) in assay buffer containing 150 μM tris(2-carboxyethyl)phosphine (TCEP, Pierce Chemical, Rockford, Ill.) using a Multidrop (Thermo Electron Corp., Waltham, Mass.). Final assay concentrations were 500 pM chymase, 100 nM substrate, 100 μM TCEP, and 1% DMSO. The plates were incubated at 28° C. and 80% humidity for 1 hour, at which time the fluorescence was read on a Viewlux 1430 Microplate Imager (Perkin Elmer Life Sciences, Boston, Mass.) with 485 nm excitation, 530 nm emission, and a fluorescein dichroic mirror. The percentage of control values were calculated relative to assay blanks containing complete reaction minus chymase and a 100% control containing assay buffer with 1% DMSO in place of compound. IC50 values were obtained by fitting the data using XLFit4 (IDBS Software).

- IC50: 4 nM
SMILES: Cc1cc(C)c2c(Cn3c(=O)n(C4(CC(=O)O)CCCCC4)c(=O)c4ccccc43)nsc2c1 [{1-[1-(4,6-Dimethyl-1,2-benzisothiazol-3-ylmethyl)-2,4-dioxo-1,4-dihydro-2H-quinazolin-3-yl]-cyclohexyl}-acetic acid]
